From ChEMBL document CHEMBL3425430, “α-Substituted 2-(3-fluoro-4-methylsulfonamidophenyl)acetamides as potent TRPV1 antagonists” (Bioorg Med Chem Lett, 2015)

Molecular target: T1, Transient receptor potential cation channel subfamily V member 1 (Homo sapiens, UniProt Q8NER1)
Experiment: Antagonist activity at human TRPV1 expressed in CHO cells assessed as inhibition of 45 degC heat-induced activation by FLIPR assay
Assay type: cell-based
Details: not given; call rule not given here

T1 sequence (Q8NER1 whole entry): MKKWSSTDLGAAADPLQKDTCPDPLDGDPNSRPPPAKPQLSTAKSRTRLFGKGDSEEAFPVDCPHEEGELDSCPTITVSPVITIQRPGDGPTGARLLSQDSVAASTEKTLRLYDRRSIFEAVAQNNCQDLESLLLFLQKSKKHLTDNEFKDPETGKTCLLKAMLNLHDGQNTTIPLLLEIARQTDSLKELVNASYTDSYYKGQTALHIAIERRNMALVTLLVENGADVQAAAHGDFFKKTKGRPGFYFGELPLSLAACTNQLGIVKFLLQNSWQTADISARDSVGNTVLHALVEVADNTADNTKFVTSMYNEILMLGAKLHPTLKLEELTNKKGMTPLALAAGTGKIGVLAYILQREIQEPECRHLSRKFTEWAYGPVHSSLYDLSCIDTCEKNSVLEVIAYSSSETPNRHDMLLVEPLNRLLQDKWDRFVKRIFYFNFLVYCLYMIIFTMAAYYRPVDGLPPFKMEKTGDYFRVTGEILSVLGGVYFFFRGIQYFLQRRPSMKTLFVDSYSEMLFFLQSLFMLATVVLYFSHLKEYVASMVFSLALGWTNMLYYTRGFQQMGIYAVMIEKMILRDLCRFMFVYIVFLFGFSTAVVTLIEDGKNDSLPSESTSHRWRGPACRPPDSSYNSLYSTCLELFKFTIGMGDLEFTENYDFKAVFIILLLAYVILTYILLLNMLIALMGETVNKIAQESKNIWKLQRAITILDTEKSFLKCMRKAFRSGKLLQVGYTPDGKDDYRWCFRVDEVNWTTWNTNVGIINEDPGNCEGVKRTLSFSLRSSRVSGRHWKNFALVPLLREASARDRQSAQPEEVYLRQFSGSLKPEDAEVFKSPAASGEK

IC50 [nM]	Compound
36.2	Cc1cccc(C(C(=O)NCc2ccc(C(F)(F)F)nc2N2CCC(C)CC2)c2ccc(NS(C)(=O)=O)c(F)c2)c1 (configuration not stated)

Molecular target: T1, Transient receptor potential cation channel subfamily V member 1
Experiment: Antagonist activity at human TRPV1 expressed in CHO cells assessed as inhibition of N-arachidonoyl dopamine-induced activation by FLIPR assay
Assay type: cell-based
Details: not given

Ki [nM]	Compound
0.25	Cc1cccc(C(C(=O)NCc2ccc(C(F)(F)F)nc2N2CCC(C)CC2)c2ccc(NS(C)(=O)=O)c(F)c2)c1 (configuration not stated)

Molecular target: T1, Transient receptor potential cation channel subfamily V member 1
Experiment: Antagonist activity at human TRPV1 expressed in CHO cells assessed as inhibition of capsaicin-induced activation by FLIPR assay
Assay type: cell-based
Details: cho

Compound	Ki
CS(=O)(=O)Nc1ccc(C(C(=O)NCc2ccc(C(F)(F)F)nc2SC2CCCCC2)C2CCCCC2)cc1F (configuration not stated)	Active
Cc1ccccc1C(C(=O)NCc1ccc(C(F)(F)F)nc1SC1CCCCC1)c1ccc(NS(C)(=O)=O)c(F)c1 (configuration not stated)	Active
Cc1ccc(CC(C(=O)NCc2ccc(C(F)(F)F)nc2N2CCC(C)CC2)c2ccc(NS(C)(=O)=O)c(F)c2)cc1 (configuration not stated)	Active
CCC(C)(C(=O)NCc1ccc(C(F)(F)F)nc1SC1CCCCC1)c1ccc(NS(C)(=O)=O)c(F)c1 (configuration not stated)	Active
CC1CCN(c2nc(C(F)(F)F)ccc2CNC(=O)C2(c3ccc(NS(C)(=O)=O)c(F)c3)CCCC2)CC1	Active
CS(=O)(=O)Nc1ccc(C2(C(=O)NCc3ccc(C(F)(F)F)nc3SC3CCCCC3)CCCC2)cc1F	Active

Second part, the compound after the results:

Ki	Compound
Active	CS(=O)(=O)Nc1ccc(C(Cc2ccccc2)C(=O)NCc2ccc(C(F)(F)F)nc2SC2CCCCC2)cc1F (configuration not stated)
Active	CS(=O)(=O)Nc1ccc(C(Cc2ccc(F)cc2)C(=O)NCc2ccc(C(F)(F)F)nc2SC2CCCCC2)cc1F (configuration not stated)

Same assay, conditions: read-out: Ki

Compound	Ki [nM]
Cc1cccc(C(C(=O)NCc2ccc(C(F)(F)F)nc2SC2CCCCC2)c2ccc(NS(C)(=O)=O)c(F)c2)c1 (configuration not stated)	56.4
CC1CCN(c2nc(C(F)(F)F)ccc2CNC(=O)C(Cc2ccccc2)c2ccc(NS(C)(=O)=O)c(F)c2)CC1 (configuration not stated)	65.9
CC1CCN(c2nc(C(F)(F)F)ccc2CNC(=O)C(Cc2ccc(F)cc2)c2ccc(NS(C)(=O)=O)c(F)c2)CC1 (configuration not stated)	49.3

Other lines, results leading:

Ki [nM]	Compound
48.7	CS(=O)(=O)Nc1ccc(C(C(=O)NCc2ccc(C(F)(F)F)nc2SC2CCCCC2)c2cccc(F)c2)cc1F (configuration not stated)
37.6	CS(=O)(=O)Nc1ccc(C(C(=O)NCc2ccc(C(F)(F)F)nc2SC2CCCCC2)c2ccc(F)cc2)cc1F (configuration not stated)
7.5	Cc1ccc(C(C(=O)NCc2ccc(C(F)(F)F)nc2SC2CCCCC2)c2ccc(NS(C)(=O)=O)c(F)c2)cc1 (configuration not stated)
40.3	Cc1ccc(CC(C(=O)NCc2ccc(C(F)(F)F)nc2SC2CCCCC2)c2ccc(NS(C)(=O)=O)c(F)c2)cc1 (configuration not stated)
